Reference: PubChem BioAssay (NCI)
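Where inhibition never reached the appropriate level, the endpoint shown equals the highest concentration tested. Otherwise, values were interpolated linearly from a five-concentration, 48-hour dose response in 96-well plates. GI50 is the concentration that inhibits growth by half. Definition used: TGI = concentration required for complete inhibition of growth.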

How the values were obtained:
Assay in all cases: inhibition of tumour cell growth, NCI panel, 48 h
HL-60(TB) leukemia = test system: HL-60(TB) leukemia
UACC-62 melanoma = test system: UACC-62 melanoma
DU-145 prostate = test system: DU-145 prostate
KM12 colon = test system: KM12 colon
HCT-116 colon = test system: HCT-116 colon
UACC-257 melanoma = test system: UACC-257 melanoma
SF-268 CNS = test system: SF-268 CNS
HCC-2998 colon = test system: HCC-2998 colon
NCI-H23 lung = test system: NCI-H23 lung
MDA-MB-231 breast = test system: MDA-MB-231 breast
PC-3 prostate = test system: PC-3 prostate
SNB-75 CNS = test system: SNB-75 CNS
SNB-19 CNS = test system: SNB-19 CNS
RXF 393 renal = test system: RXF 393 renal
A498 renal = test system: A498 renal
NCI-H522 lung = test system: NCI-H522 lung
RPMI-8226 leukemia = test system: RPMI-8226 leukemia
HCT-15 colon = test system: HCT-15 colon
SK-MEL-28 melanoma = test system: SK-MEL-28 melanoma
TK-10 renal = test system: TK-10 renal
NCI-H226 lung = test system: NCI-H226 lung
786-0 renal = test system: 786-0 renal
MDA-MB-435 = test system: MDA-MB-435
SK-OV-3 ovarian = test system: SK-OV-3 ovarian
T-47D breast = test system: T-47D breast
HT29 colon = test system: HT29 colon
COLO 205 colon = test system: COLO 205 colon
M14 melanoma = test system: M14 melanoma
NCI/ADR-RES ovarian = test system: NCI/ADR-RES ovarian
OVCAR-4 ovarian = test system: OVCAR-4 ovarian
SW-620 colon = test system: SW-620 colon
HS 578T breast = test system: HS 578T breast
NCI-H460 lung = test system: NCI-H460 lung
CAKI-1 renal = test system: CAKI-1 renal
A549 NSCLC = test system: A549 NSCLC
OVCAR-8 ovarian = test system: OVCAR-8 ovarian
U251 CNS = test system: U251 CNS
IGROV1 ovarian = test system: IGROV1 ovarian
K-562 leukemia = test system: K-562 leukemia
BT-549 breast = test system: BT-549 breast
SR leukemia = test system: SR leukemia
CCRF-CEM leukemia = test system: CCRF-CEM leukemia
HOP-62 NSCLC = test system: HOP-62 NSCLC
HOP-92 NSCLC = test system: HOP-92 NSCLC
SK-MEL-5 melanoma = test system: SK-MEL-5 melanoma
SF-295 CNS = test system: SF-295 CNS
ACHN renal = test system: ACHN renal
SK-MEL-2 melanoma = test system: SK-MEL-2 melanoma
SF-539 CNS = test system: SF-539 CNS
UO-31 renal = test system: UO-31 renal
OVCAR-5 ovarian = test system: OVCAR-5 ovarian
MOLT-4 leukemia = test system: MOLT-4 leukemia
MCF7 breast = test system: MCF7 breast
EKVX NSCLC = test system: EKVX NSCLC
MALME-3M melanoma = test system: MALME-3M melanoma
SN12C renal = test system: SN12C renal

O=C(CCC(=O)N1CCOCC1)OCCCCCCSc1ccc([N+](=O)[O-])c2nonc12
GI50 (HL-60(TB) leukemia): 0.313 µM | TGI (HL-60(TB) leukemia): 1.62 µM | GI50 (UACC-62 melanoma): 1.01 µM | TGI (UACC-62 melanoma): 2.36 µM | GI50 (DU-145 prostate): 1.4 µM | TGI (DU-145 prostate): 2.71 µM | GI50 (KM12 colon): 2.7 µM | TGI (KM12 colon): 7.77 µM | GI50 (HCT-116 colon): 0.41 µM | TGI (HCT-116 colon): 1.67 µM | GI50 (UACC-257 melanoma): 1.63 µM | TGI (UACC-257 melanoma): 3.66 µM | GI50 (SF-268 CNS): 1.65 µM | TGI (SF-268 CNS): 5.25 µM | GI50 (HCC-2998 colon): 1.68 µM | TGI (HCC-2998 colon): 3.16 µM | GI50 (NCI-H23 lung): 1.39 µM | TGI (NCI-H23 lung): 3 µM | GI50 (MDA-MB-231 breast): 1.39 µM | TGI (MDA-MB-231 breast): 3.08 µM | GI50 (PC-3 prostate): 1.6 µM | TGI (PC-3 prostate): 4.19 µM | GI50 (SNB-75 CNS): 0.49 µM | TGI (SNB-75 CNS): 17 µM | GI50 (SNB-19 CNS): 1.61 µM | TGI (SNB-19 CNS): 4.71 µM | GI50 (RXF 393 renal): 0.574 µM | TGI (RXF 393 renal): 1.96 µM | GI50 (A498 renal): 1.85 µM | TGI (A498 renal): 4.26 µM | GI50 (NCI-H522 lung): 0.853 µM | TGI (NCI-H522 lung): 3.93 µM | GI50 (RPMI-8226 leukemia): 0.401 µM | TGI (RPMI-8226 leukemia): 3.35 µM | GI50 (HCT-15 colon): 0.267 µM | TGI (HCT-15 colon): 1.12 µM | GI50 (SK-MEL-28 melanoma): 1.62 µM | TGI (SK-MEL-28 melanoma): 3.11 µM | GI50 (TK-10 renal): 4.1 µM | TGI (TK-10 renal): 13.3 µM | GI50 (NCI-H226 lung): 1.44 µM | TGI (NCI-H226 lung): 3.81 µM | GI50 (786-0 renal): 1.4 µM | TGI (786-0 renal): 4.15 µM | GI50 (MDA-MB-435): 1.16 µM | TGI (MDA-MB-435): 2.5 µM | GI50 (SK-OV-3 ovarian): 3.85 µM | TGI (SK-OV-3 ovarian): 16.9 µM | GI50 (T-47D breast): 2.03 µM | TGI (T-47D breast): 5.11 µM | GI50 (HT29 colon): 1.01 µM | TGI (HT29 colon): 4.27 µM | GI50 (COLO 205 colon): 1.89 µM | TGI (COLO 205 colon): 4.59 µM | GI50 (M14 melanoma): 1.32 µM | TGI (M14 melanoma): 2.89 µM | GI50 (NCI/ADR-RES ovarian): 0.759 µM | TGI (NCI/ADR-RES ovarian): 4.44 µM | GI50 (OVCAR-4 ovarian): 1.82 µM | TGI (OVCAR-4 ovarian): 3.8 µM | GI50 (SW-620 colon): 0.479 µM | TGI (SW-620 colon): 2.28 µM | GI50 (HS 578T breast): 1.69 µM | TGI (HS 578T breast): 5.99 µM | GI50 (NCI-H460 lung): 1.7 µM | TGI (NCI-H460 lung): 3.82 µM | GI50 (CAKI-1 renal): 1.52 µM | TGI (CAKI-1 renal): 3.95 µM | GI50 (A549 NSCLC): 2.9 µM | TGI (A549 NSCLC): 12 µM | GI50 (OVCAR-8 ovarian): 0.827 µM | TGI (OVCAR-8 ovarian): 9.25 µM | GI50 (U251 CNS): 0.64 µM | TGI (U251 CNS): 2.7 µM | GI50 (IGROV1 ovarian): 1.01 µM | TGI (IGROV1 ovarian): 2.24 µM | GI50 (K-562 leukemia): 0.259 µM | TGI (K-562 leukemia): > 100 µM | GI50 (BT-549 breast): 0.939 µM | TGI (BT-549 breast): 2.17 µM | GI50 (SR leukemia): 0.239 µM | TGI (SR leukemia): 2.16 µM | GI50 (CCRF-CEM leukemia): 0.284 µM | TGI (CCRF-CEM leukemia): 3.85 µM | GI50 (HOP-62 NSCLC): 1.74 µM | TGI (HOP-62 NSCLC): 4.45 µM | GI50 (HOP-92 NSCLC): 1.24 µM | TGI (HOP-92 NSCLC): 2.83 µM | GI50 (SK-MEL-5 melanoma): 1.7 µM | TGI (SK-MEL-5 melanoma): 3.29 µM | GI50 (SF-295 CNS): 2.46 µM | TGI (SF-295 CNS): 7.21 µM | GI50 (ACHN renal): 0.472 µM | TGI (ACHN renal): 1.68 µM | GI50 (SK-MEL-2 melanoma): 2.48 µM | TGI (SK-MEL-2 melanoma): 6.68 µM | GI50 (SF-539 CNS): 0.666 µM | TGI (SF-539 CNS): 1.99 µM | GI50 (UO-31 renal): 0.418 µM | TGI (UO-31 renal): 2.26 µM | GI50 (OVCAR-5 ovarian): 1.58 µM | TGI (OVCAR-5 ovarian): 3.25 µM | GI50 (MOLT-4 leukemia): 0.41 µM | TGI (MOLT-4 leukemia): 3.49 µM | GI50 (MCF7 breast): 0.334 µM | TGI (MCF7 breast): 1.92 µM | GI50 (EKVX NSCLC): 1.55 µM | TGI (EKVX NSCLC): 3.26 µM | GI50 (MALME-3M melanoma): 1.15 µM | TGI (MALME-3M melanoma): 2.51 µM | GI50 (SN12C renal): 1.01 µM | TGI (SN12C renal): 2.3 µM
